The source of these data is patent US20220296555A1, “ACYLATED ACTIVE AGENTS AND METHODS OF THEIR USE FOR THE TREATMENT OF METABOLIC DISORDERS AND NONALCOHOLIC FATTY LIVER DISEASE” (Flagship Pioneering Innovations V, Inc., priority 2019, published 2022).

In one series the test system is mouse myocyte. The series is described as follows: Mouse myocyte lipolysis assay. It is filed as cell-based. Conditions: differentiated myocytes. As to the method:
Cells were obtained from ATCC and cultured in Dulbecco's Modified Eagle's medium (DMEM) containing 20% fetal bovine serum and 1% penicillin/streptomycin at 37° C. in an incubator with 5% CO2. Once the cells became confluent, they were seeded into a tissue culture treated 96 well plate. The next day, the medium containing DMEM with 2% equine serum was used to start differentiation. Table 2 lists the tested compounds including those that reduced the release of glycerol (+, ++, or +++). The lipolytic rate of muscle triglycerides is associated with metabolic dysfunction including insulin resistance and liver steatosis. Compounds that lower lipolysis of adipocytes may improve metabolic function including improving insulin sensitivity and reducing liver steatosis, thus improving outcomes in patients with diabetes mellitus (e.g., prediabetes or type II diabetes) obesity, and hyperlipidemia.

For series [1], the system named is differentiated mouse 3T3-L1 cells. The series is described as follows: Mouse adipocyte lipolysis assay (Lipolysis Assay Kit, ZenBio). It is filed as cell-based. Conditions: 24 hours post-treatment, 3T3-L1 adipocytes. On the procedure:
Mouse 3T3-L1 cells were obtained from ATCC and cultured in Dulbecco's Modified Eagle's medium (DMEM) containing 10% newborn calf serum (NCS) and penicillin/streptomycin(P/S) at 37° C. in an incubator with 5% CO2. Once the cells became confluent, they were seeded into a tissue culture treated 96 well plate. Then, differentiation was initiated by using DMEM containing 10% fetal bovine serum, P/S, IBMX, dexamethasone, and insulin. After 14 days of differentiation, cells were treated with compounds of interest. After 24 hours post-treatment, the cell viability was assessed using CellTiter-Glo Luminescent Cell Viability Assay from Promega, and lipolysis was determined using Lipolysis Assay Kit from ZenBio. […] Table 1 lists the compounds that reduced the release of free fatty acids and glycerol (+, ++, or +++). The lipolytic rate of white adipose tissue is associated with metabolic dysfunction including insulin resistance and liver steatosis. Compounds that lower lipolysis of adipocytes may improve metabolic function including improving insulin sensitivity and reducing liver steatosis, thus improving outcomes in subjects with diabetes mellitus (e.g., prediabetes or type II diabetes), obesity, and hyperlipidemia.

A short description of series [2]: Assay 2. Stability in Simulated Intestinal Fluid (SIF). It is filed as in vitro ADME. Particulars: SIF pH 6.7 with pancreatin, 1 μM, 37° C. On the procedure: Assay 2. Stability of conjugates in Simulated Intestinal Fluid (SIF). This assay was used to assess the stability of an acylated cinnamic acid in a small intestine.
Phosphate buffer was prepared by dissolving 0.42 g of sodium hydroxide pellets and 3.95 g of monobasic sodium phosphate monohydrate and 6.19 g of sodium chloride in ultrapure water (MilliQ®, Millipore Sigma, Darmstadt, Germany). The pH was adjusted to 6.7 using aq. HCl and aq. NaOH, as necessary, and the solution was diluted with ultrapure water to produce 1 L of the pH 6.7 buffer.
112 mg FaSSIF powder (Biorelevant™, London, UK) was dissolved in 50 mL of the pH 6.7 buffer. 2 to 3 mL of the resulting solution were then added to 500 mg pancreatin (Millipore Sigma, Darmstadt, Germany). The resulting mixture was agitated by finger tapping the vessel containing the mixture until milky suspension formed. At this time, the remainder of the 50 mL FaSSiF/pH 6.7 buffer solution was added. The resulting suspension was flipped upside down 10 times to produce SIF, which was used fresh.
A test compound was dissolved in DMSO stock to 1 mM. An aliquot of the DMSO stock solution was removed and diluted in the SIF media in 15 mL falcon tubes to produce a mixture with a tested compound concentration of 1 μM. […] The resulting samples were analyzed by LC/MS to determine degradation rates

Series [3] is described as follows: Assay 3. In vitro Colonic Material Stability Assay. The series is classed as in vitro ADME. Conditions: colonic material slurry, anaerobic, 1 or 10 μM. On the procedure:
Assay 3. In vitro Colonic Material Stability Assay. This assay was used to assess the stability of an acylated cinnamic acid in a large intestine. All experiments were performed in an anaerobic chamber containing 90% nitrogen, 5% hydrogen and 5% carbon dioxide. Colonic material was resuspended as a slurry (15% w/v final concentration) in pre-reduced, anaerobically sterilized dilution blanks (Anaerobe Systems AS-908). The colonic material was then inoculated into 96 well plates containing YCFAC media (Anaerobe Systems AS-680) or other suitable media (6.7 μL slurry into 1 mL total media). A test compound was added to an individual well to reach a final analyte concentration of 1 or 10 μM, and the material was mixed by pipetting. Sample was removed after set timepoints (0, 120, 240, 480, 1440, 2880 minutes after initiation of the assay), quenched with acetonitrile containing internal standard, and analyzed by LC/MS.

Series [4] in a line: Assay 1. Stability in Simulated Gastric Fluid (SGF). It is filed as in vitro ADME. Conditions: SGF pH 1.6 with pepsin, 1 μM, 37° C. As to the method:
Assay 1. Stability of conjugates in Simulated Gastric Fluid (SGF). This assay was used to assess the stability of an acylated cinnamic acid in a stomach.
Medium was prepared by dissolving 2 g of sodium chloride in 0.6 L in ultrapure water (MilliQ®, Millipore Sigma, Darmstadt, Germany). The pH was adjusted to 1.6 with 1N hydrochloric acid, and the volume was then adjusted to 1 L with purified water.
60 mg FaSSIF powder (Biorelevant™, London, UK) were dissolved in 500 mL buffer (above). Pepsin was added (0.1 mg/mL) (Millipore Sigma, Darmstadt, Germany), and the solution was stirred. The resulting SGF media were used fresh for each experiment.
A test compound was dissolved in DMSO stock to 1 mM. An aliquot of the DMSO stock solution was removed and diluted in the SGF Media in 15 mL falcon tubes to generate a total compound concentration of 1 μM. A 1 mL aliquot was immediately removed and diluted once with 1 volume of acetonitrile for T0 timepoint. The mixture was sealed and mixed at 37° C. in an incubator. Aliquots (1 mL) were removed at regular intervals and immediately quenched by the addition of 1 volume of acetonitrile. The resulting samples were analyzed by LC/MS to determine degradation rates in SGF.

The next series has as its system C57BL/6 mice. The series is described as follows: In vivo evaluation in mice fed a high-fat diet (84-day study). Also on record: species or system mouse. On the procedure: Animals were allowed free access to food and drinking water for the entire study. Animals were weighed on a regular basis, and food and drinking water consumption monitored. Plasma and stool samples were collected at the beginning of the study and 42 days into the study. Additional blood was drawn from fasted mice 58 days into the study. Insulin tolerance tests were performed 72 or 73 days into the study. Following an approximate 4 h fast, 0.5 Units/kg insulin was administered intraperitoneally. Blood was collected pre-insulin challenge (t=0) and at t=15, 30, 60, 90, and 120 min following insulin challenge. Oral glucose tolerance tests were performed 79 or 80 days into the study. Following an approximate 4 h fast, 2 g/kg glucose was administered by oral gavage. Blood was collected pre-insulin challenge (t=0) and at t=15, 30, 60, 90, and 120 min following glucose challenge. At the end of the study, body weight, food consumption, blood glucose, serum ALT levels, serum AST levels, serum cholesterol (total cholesterol. HDL, and LDL levels), serum triglycerides levels, liver triglyceride levels, liver cholesterol levels, liver weight, subcutaneous fat pad weight, and epididymal fat pad weight were measured in all mice.

As to `CC(=O)O` [Acetic acid], the “Free glycerol % DMSO” value in the series with mouse myocyte (1 mM) and in the series on mouse myocyte (3 mM) was “= (90% >< 100%: =)” throughout. Besides, the “Lipolysis Free Fatty Acids % DMSO” value in series [1] (1 mM) and in series [1] (3 mM) was “++ (50 >≤ 70%: ++)” each time. Moreover, the “Lipolysis Glycerol % change” value in series [1] (1 mM) and in series [1] (3 mM) was “+ (70% >≤90%: +)” in each case.
As for `CCCC(=O)O` [Butyric acid], in the series on mouse myocyte (3 mM), the “Free glycerol % DMSO” value is on record as “+++ (50%<: +++)”. Further, in series [1] (3 mM), the “Lipolysis Free Fatty Acids % DMSO” value is on record as “++ (50 >≤ 70%: ++)” and the “Lipolysis Glycerol % change” value is listed as “++ (50 >≤ 70%: ++)”.
`O=C(O)/C=C/c1ccc(O)c(O)c1` [Caffeic acid]: in the series with mouse myocyte (100 μM), the “Free glycerol % DMSO” value is given as “+++ (50%<: +++)”. Besides, in series [1] (100 μM), the “Lipolysis Free Fatty Acids % DMSO” value was “+++ (50%≤: +++)” and the “Lipolysis Glycerol % change” value is “+++ (50%≤: +++)”.
For `CCC(=O)O` [Propionic acid], the “Free glycerol % DMSO” value with mouse myocyte (3 mM) was “++ (50 >< 70%: ++)”. For the same compound, in series [1] (3 mM), the “Lipolysis Free Fatty Acids % DMSO” value is “+++ (50%≤: +++)” and the “Lipolysis Glycerol % change” value is given as “++ (50 >≤ 70%: ++)”.
As to `CC(=O)Oc1ccc(/C=C/C(=O)O)cc1OC(C)=O` [compound 3, diacetyl caffeic acid], the “Assay 2 (SIF) (% @ Remaining 4 hours)” value in series [2] is reported as “A (<25% of the tested compound remaining)”. Besides, in series [3], the “Assay 3 (% Remaining at 24 h)” value is recorded as “A (<25% of the tested compound remaining)”. In addition, the “Assay 1 (SGF) (% Remaining @ 1 hour)” value in series [4] is listed as “C (>75% of the tested compound remaining)”.
Take `CC(=O)O[C@@H]1OC[C@@H](OC(C)=O)[C@H](OC(C)=O)[C@H]1OC(C)=O` [compound 4]: the “metabolic markers (e.g., glucose tolerance, insulin tolerance, cholesterol levels)” value in the series on C57BL/6 mice (mice fed high-fat diet + test article) was “improve metabolic markers”. In addition, in the series with C57BL/6 mice (mice fed high-fat diet, over the study), the weight loss entry is reported as “induce weight loss”.
